The test system of test [1] is fVIIa-sTF. As to conditions: P1 moiety; cited from earlier work. The text has this: We have detected aeruginosins 98A (36) and B (37) from M. aeruginosa NIES-98. The MeOH fractions from the aforementioned cyanobacteria are not active in the fVIIa-sTF assay. Thus, from our readings, we compare the fVIIa-sTF inhibitory activity of aeruginosins to phenylamidine. […] The presence of the cyclic amino alcohol moiety in aeruginosins may contribute to efficient binding against fVIIa. However, this hypothesis needs to be established by a structure–ac ...

Test [2] deals with T1, fVIIa (Homo sapiens, UniProt P08709).
T1 construct: purchased Enzyme Research Laboratories, South Bend, IN, USA HFVIIa
As to the kind of experiment: fVIIa inhibitory assay (cephalin buffer, without sTF). It counts as biochemical. As to conditions: for fVIIa inhibition, slow binding, in words: 10 and 1 µg/mL, L-α-cephalin buffer, without sTF, three to six hours; for fVIIa inhibitory activity, in words: concentration not given. The protocol: (§1) All assay experiments were done in a cold condition at 4 °C using an ice bucket until pre-incubation and reaction at 37 °C.
(§2) The fVIIa and fVIIa-sTF assays used L-α-cephalin buffer solution. The fVIIa-sTF assay was performed following the procedure by Nakagura et al. with modification. The L-α-cephalin as buffer solution was prepared as follows: Buffer (A): Five hundred milliliters (500 mL) of water was added to 6.057 g of Tris (hydroxymethyl)aminomethane (Nacalai Tesque, Kyoto, Japan) to make 100 mM Tris-HCl solution; 4.383 g NaCl (Nacalai Tesque) was added to the resulting solution to make […], and 500 mg bovine serum albumin (BSA) (Sigma, A7284, St. Louis, MO, USA) was added. The pH was adjusted to 7.40; Buffer (B): A 200 mL of Buffer A was added to 0.3329 g of CaCl2 (Nacalai Tesque). The resulting solution (Buffer B) was adjusted to pH 7.48 before it was stored at 4 °C in preparation for the next day experiment. A 30 µg/mL 3-sn-phosphatidylethanolamine from the bovine brain (Sigma, USA) or L-α-cephalin was added to Buffer B on the day of the experiment.
The 80 µL 3-sn-phosphatidylethanolamine buffer, 50 µL of […] fVIIa enzyme in a buffer, and 20 µL of sample solution were dispensed in each well of a 96-well plate (Iwaki: 3881-096, Tokyo, Japan). The 96-well plate with the solution was pre-incubated at 37 °C for 5 min separately together with 1 mM of Chromozyme t-PA (N-Methylsulfonyl-D-Phe-Gly-Arg-4-nitranilide acetate), from Roche Diagnostics (Mannheim, Germany), dissolved in water as a substrate. The 50 µL of the substrate was added, and the mixture was agitated to start the reaction.
(§3) The human factor VIIa (HFVIIa) enzyme, purchased from Enzyme Research Laboratories, South Bend, IN, USA, was added and adjusted with 20 mM Tris-HCl/0.1 M NaCl/pH 7.4. The final enzyme concentration should be 95.06 µg/mL. The 100 µL enzyme solutions were stored in plastic cryogenic vials (Iwaki: 2712-002, Tokyo, Japan) at −80 °C until use. The fVIIa enzyme, 95.06 µg/mL, and 100 µL volume solution was added to 7.822 mL of 3-sn-phosphatidylethanolamine buffer on the assay preparation.

The target of a further test is thrombin (Homo sapiens, UniProt P00734). Kind of test: Thrombin inhibitory assay. Type of test: biochemical.
In test [3] the test system is fVIIa-sTF. As to the kind of experiment: fVIIa-sTF inhibitory assay. Type of test: biochemical, human. The protocol: as §1, §2
The same buffer preparation for fVIIa assay was used for the fVIIa-sTF inhibitory assay. The fVIIa: sTF ratio was 0.30 µg/mL: 0.39 µg/mL, and was prepared in Section 3.3.2.
as §3
The sTF or Recombinant Human Soluble Tissue Factor (F3-28H) or Human F3 was purchased from Creative Biomart, Shirley, NY, USA. The sTF was added with 10 mM PBS, pH 7.4, to make […] (25.624 µg/mL), and transferred in 300 µL volumes in plastic cryogenic vials (Iwaki: 2712-002, Tokyo, Japan), stored at −80 °C until use. The sTF solution (25.624 µg/mL, 300 µL) was added to 4.7 mL of the 3-sn-phosphatidylethanolamine buffer in an amber bottle before use.
The 30 µL buffer, 100 µL fVIIa-sTF, and 20 µL sample solutions were added to a well in a 96-well plate. The solution was pre-incubated at 37 °C for 5 min, together with 1 mM Chromozym t-PA in water as a substrate. A 50-µL substrate was added to start the reaction, agitated, and the absorbance was monitored at 405 nm using Thermo Scientific Multiskan FC microplate photometer.

The test system of test [4] is fVIIa. As to conditions: cited from earlier work.

Data on ten compounds can be found in paper PMC4728504, “Determination of FVIIa-sTF Inhibitors in Toxic Microcystis Cyanobacteria by LC-MS Technique” (Marine Drugs, 2015).

Entries after “also recorded” stand apart in the source; their conditions may differ. Where two headings read alike, the source gives them in different places.

T1 sequence (P08709 213-466): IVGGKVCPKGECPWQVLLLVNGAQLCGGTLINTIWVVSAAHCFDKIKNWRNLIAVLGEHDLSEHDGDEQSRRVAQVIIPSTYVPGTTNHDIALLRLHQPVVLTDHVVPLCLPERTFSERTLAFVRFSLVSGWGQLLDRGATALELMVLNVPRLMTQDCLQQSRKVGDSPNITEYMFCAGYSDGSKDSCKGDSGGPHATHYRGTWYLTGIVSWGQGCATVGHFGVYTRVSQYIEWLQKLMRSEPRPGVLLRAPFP
T1 sequence (P08709 61-212): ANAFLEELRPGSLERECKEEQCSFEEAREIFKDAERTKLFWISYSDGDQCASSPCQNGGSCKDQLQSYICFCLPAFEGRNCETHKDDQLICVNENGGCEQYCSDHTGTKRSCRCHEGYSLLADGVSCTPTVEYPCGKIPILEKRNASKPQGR

Turning to `N=C(N)c1ccccc1` [phenylamidine], in the test with fVIIa-sTF [1], the “fVIIa-sTF inhibitory activity, in words” value is listed as “inhibitory activity against fVIIa-sTF”.

Take aeruginopeptin 228-B [Compound 3]: the “fVIIa inhibition, slow binding, in words” value at fVIIa [2] is “active against fVIIa with slow binding and inhibition from three to six hours”.

As to aeruginosin K139 [Compound 30], at thrombin (aeruginosins or MeOH fractions, concentration not given), the “thrombin inhibitory activity, in words” value is “dual inhibitory activity”. In addition, the “active compound attributed by LC-MS in fVIIa-sTF active fraction” value with fVIIa-sTF [3] (dereplication by LC-MS of active fraction, not tested as pure compound) is reported as “active component; also recorded: active compound”. The “fVIIa inhibitory activity, in words” value at fVIIa [2] is “dual inhibitory activity”.

With “microcystin-LR [Compound 18, reference compound]”, the “fVIIa-sTF inhibition, in words” value with fVIIa-sTF [3] is “not active”.

For the compound “microcystin-RR [Compound 19, reference compound]”, the “fVIIa-sTF inhibition, in words” value in the test with fVIIa-sTF [3] is listed as “not active”.

On to “microcystin-YR [Compound 20, reference compound]”, for which, in the test on fVIIa-sTF [3], the “fVIIa-sTF inhibition, in words” value is reported as “not active”.

As for oscillapeptilide 97A [Compound 11], the “fVIIa inhibition, slow binding, in words” value at fVIIa [2] was “active against fVIIa with slow binding and inhibition from three to six hours”.

With oscillapeptin G [Compound 10], the “fVIIa inhibition, slow binding, in words” value at fVIIa [2] is “active against fVIIa with slow binding and inhibition from three to six hours”.

In the case of oscillarin, the “fVIIa inhibition, in words” value in the test on fVIIa [4] was “fVIIa and thrombin inhibitors”.

On to spumigins A [Compound 21], for which the “thrombin inhibition, in words” value at thrombin (100 µg/mL, after a long-term storage) was “active”. Further, in the test on fVIIa-sTF [3] (pure compounds or compound class), the “fVIIa-sTF inhibition, in words” value is listed as “do not inhibit”. For the same compound, the “fVIIa inhibitory activity, in words” value at fVIIa [2] is listed as “do not inhibit”.
